Data from patent US20140107109A1, “AMINO-DIHYDROTHIAZINE AND AMINO-DIOXIDO DIHYDROTHIAZINE COMPOUNDS AS BETA-SECRETASE ANTAGONISTS AND METHODS OF USE” (Amgen Inc., priority 2012, published 2014).
pIC50: −log10 of the molar value. Read-outs that look alike come from different tables or passages of the source.

Assays:
[1] = system: Aβ40 in conditioned medium of cells stably expressing Amyloid Precursor Protein (APP); experiment: In vitro BACE cell-based assay (HEK cell assay), Aβ40 sandwich ELISA; settings: Homo sapiens, HEK293
Method in brief: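 APP-stably expressing cells (40K/well, grown 24 h in DMEM/10% FBS) were treated 24 h with compounds in 10-point dose response starting at 100 μM or 10 μM, 0.1% DMSO final. Secreted Aβ40 was measured by sandwich ELISA (pAb40 capture, biotinylated 6E10 detection, europium time-resolved fluorescence); IC50 from percent inhibition.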

[2] = target: T1, Cathepsin D (Cat D) (Homo sapiens, UniProt P07339); experiment: In vitro enzymatic Cathepsin D (Cat D) FRET assay; type: biochemical
T1 construct: Recombinant Cat D was expressed in CHO cells; made in house; host or cells: CHO cells
T1 sequence (P07339 65-412, species assumed): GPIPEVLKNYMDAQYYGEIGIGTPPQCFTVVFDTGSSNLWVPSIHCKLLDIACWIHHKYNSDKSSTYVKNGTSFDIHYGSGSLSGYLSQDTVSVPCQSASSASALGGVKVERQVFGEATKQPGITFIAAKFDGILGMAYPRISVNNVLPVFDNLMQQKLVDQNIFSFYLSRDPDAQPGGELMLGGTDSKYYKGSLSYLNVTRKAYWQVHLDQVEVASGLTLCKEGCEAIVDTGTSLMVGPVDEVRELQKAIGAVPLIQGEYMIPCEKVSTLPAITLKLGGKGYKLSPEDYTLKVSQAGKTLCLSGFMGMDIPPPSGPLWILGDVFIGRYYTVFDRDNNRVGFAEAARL
Method in brief: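 Recombinant Cat D expressed in CHO cells, used at 9 nM and pre-incubated one hour with serially diluted inhibitor in DMSO. Peptide substrate carries a fluorophore and quencher flanking the cleavage site; reaction stopped with Tris buffer raising pH to neutrality, then fluorescence read.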

[3] = target: Beta Secretase enzyme (BACE1) (Homo sapiens, UniProt P56817); experiment: In vitro enzymatic BACE FRET assay; type: biochemical
Sequence of Beta Secretase enzyme (BACE1) (P56817 46-501): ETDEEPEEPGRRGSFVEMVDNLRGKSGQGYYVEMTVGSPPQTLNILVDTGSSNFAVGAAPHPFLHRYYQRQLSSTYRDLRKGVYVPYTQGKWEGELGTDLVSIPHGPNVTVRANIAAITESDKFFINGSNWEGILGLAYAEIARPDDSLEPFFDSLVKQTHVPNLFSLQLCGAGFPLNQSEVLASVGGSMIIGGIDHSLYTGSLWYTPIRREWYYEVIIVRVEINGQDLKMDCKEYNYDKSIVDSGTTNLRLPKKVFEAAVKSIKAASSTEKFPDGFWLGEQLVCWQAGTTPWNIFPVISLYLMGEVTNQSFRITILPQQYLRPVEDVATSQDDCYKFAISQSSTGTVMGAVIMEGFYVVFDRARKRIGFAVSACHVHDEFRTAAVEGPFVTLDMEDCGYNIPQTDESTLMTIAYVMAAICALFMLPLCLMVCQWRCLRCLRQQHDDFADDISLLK
Method in brief: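 BACE1 cleavage of a 50 nM fluorophore/quencher peptide FRET substrate ran for one hour in 0.05 M acetate pH 4.2, 10% DMSO, 100 uM genapol. Tris buffer raised pH to neutrality to stop the reaction before fluorescence was read (excitation 488 nm, […]).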

[4] = average IC50, enzyme assay, read-out: BACE1 FRET assay IC50
[5] = average IC50, read-out: BACE1 FRET assay IC50

| Structure (SMILES) | pIC50 ([1]; average IC50, cell assay) | pIC50 ([2]; read-out: CatD IC50) | pIC50 [3, 4] | further results |
| --- | --- | --- | --- | --- |
| CC1(C)C(N)=N[C@](C)(c2cc(Nc3nccc4cc(OCC(F)F)cnc34)ccc2F)CS1(=O)=O [Example 161, (R)-5-amino-3-(5-((3-(2,2-difluoroethoxy)-1,7-naphthyridin-8-yl)amino)-2-fluorophenyl)-3,6,6-trimethyl-3,6-dihydro-2H-1,4-thiazine 1,1-dioxide] | 7.75 | 3.35 | 7.84 | – |
| CC1(C)C(N)=N[C@](C)(c2cc(Nc3nncc4cc(C#N)cnc34)ccc2F)CS1(=O)=O [Example 162, (R)-8-((3-(5-amino-3,6,6-trimethyl-1,1-dioxido-3,6-dihydro-2H-1,4-thiazin-3-yl)-4-fluorophenyl)amino)pyrido[2,3-d]pyridazine-3-carbonitrile] | 8.82 | 3.38 | 8.64 | – |
| CC1(C)C(N)=N[C@](C)(c2cc(N)ccc2F)[C@@H](F)S1(=O)=O [Example 164, (2S,3R)-5-amino-3-(5-amino-2-fluorophenyl)-2-fluoro-3,6,6-trimethyl-3,6-dihydro-2H-1,4-thiazine 1,1-dioxide] | 5.52 | 3.72 | 5.43 | – |
| CC1(C)C(N)=N[C@](C)(c2cc(Br)c[nH]c2=O)CS1(=O)=O [Example 169, (R)-3-(5-amino-3,6,6-trimethyl-1,1-dioxido-3,6-dihydro-2H-1,4-thiazin-3-yl)-5-bromopyridin-2(1H)-one] | < 4.81 | < 3.40 | – | pIC50 [3]: 4.68 |
| COc1ncc(NC(=O)c2ccc(Cl)cn2)cc1[C@]1(C)CS(=O)(=O)C(C)(C)C(N)=N1 [Example 170, (R)—N-(5-(5-amino-3,6,6-trimethyl-1,1-dioxido-3,6-dihydro-2H-1,4-thiazin-3-yl)-6-methoxypyridin-3-yl)-5-chloropicolinamide] | 7.54 | 3.52 | 7.65 | – |
| Cc1cc(OC(F)F)cnc1C(=O)Nc1cc([C@]2(C)CS(=O)(=O)C(C)(C)C(N)=N2)c(=O)n(C)c1 [Example 171, (R)—N-(5-(5-amino-3,6,6-trimethyl-1,1-dioxido-3,6-dihydro-2H-1,4-thiazin-3-yl)-1-methyl-6-oxo-1,6-dihydropyridin-3-yl)-5-(difluoromethoxy)-3-methylpicolinamide] | 8.08 | 3.73 | 8.03 | – |
| NC1=N[C@](CF)(c2cc(Br)ccc2F)CS(=O)(=O)C12CCC2 [Example 172, (S)-9-amino-7-(5-bromo-2-fluorophenyl)-7-(fluoromethyl)-5-thia-8-azaspiro[3.5]non-8-ene 5,5-dioxide] | – | 4.34 | – | pIC50 ([1]; average IC50, HEK cells): < 4.81; pIC50 [3, 5]: 5.45 |
| CC1(C)C(N)=N[C@](C)(c2cc(C(=O)Nc3ccc(C#N)cc3O)ccc2F)CS1(=O)=O [Example 173, (R)-3-(5-amino-3,6,6-trimethyl-1,1-dioxido-3,6-dihydro-2H-1,4-thiazin-3-yl)-N-(4-cyano-2-hydroxyphenyl)-4-fluorobenzamide] | < 4.81 | 3.98 | 5.64 | – |
| COc1cnc(C(=O)Nc2ccc(F)c([C@]3(C)CS(=O)(=O)[C@](C)(F)C(N)=N3)c2)cn1 [Example 176] | – | 3.19 | – | pIC50 ([1]; average IC50, HEK cells): 6.60; pIC50 [3, 5]: 8.55 |
| COc1cnc2c(Nc3ccc(F)c([C@]4(C)CS(=O)(=O)[C@@](C)(F)C(N)=N4)c3)ncnc2c1 [Example 177, (3R,6R)-5-Amino-6-fluoro-3-(2-fluoro-5-((7-methoxypyrido[3,2-d]pyrimidin-4-yl)amino)phenyl)-3,6-dimethyl-3,6-dihydro-2H-1,4-thiazine 1,1-dioxide] | 7.11 | 3.76 | 8.57 | – |
| C[C@]1(F)C(N)=N[C@](C)(c2cc(Nc3ncc(F)c4cc(C#N)cnc34)ccc2F)CS1(=O)=O [Example 179, 8-((3-((3R,6R)-5-Amino-6-fluoro-3,6-dimethyl-1,1-dioxido-3,6-dihydro-2H-1,4-thiazin-3-yl)-4-fluorophenyl)amino)-5-fluoro-1,7-naphthyridine-3-carbonitrile] | – | < 4.35 | – | pIC50 ([1]; average IC50, HEK cells): 6.80; pIC50 [3, 5]: 9.10 |
| Cc1nc(F)c([C@]2(C)CS(=O)(=O)C(C)(C)C(N)=N2)cc1Br [Example 184, (R)-5-Amino-3-(5-bromo-2-fluoro-6-methylpyridin-3-yl)-3,6,6-trimethyl-3,6-dihydro-2H-1,4-thiazine 1,1-dioxide] | 5.40 | – | 5.09 | pIC50 [2]: 3.90 |
| CC1(C)C(N)=N[C@](C)(c2cc(Br)ccc2F)C2(CC2)S1(=O)=O [Example 187] | – | < 3.40 | – | pIC50 ([1]; average IC50, HEK cells): < 4.81; pIC50 [3, 5]: 4.51 |
| CC1(C)C(N)=N[C@](C)(c2cc(Nc3ncc(Br)c4cc(Cl)cnc34)ccc2F)CS1(=O)=O [Example 188, (R)-5-amino-3-(5-((5-bromo-3-chloro-1,7-naphthyridin-8-yl)amino)-2-fluorophenyl)-3,6,6-trimethyl-3,6-dihydro-2H-1,4-thiazine 1,1-dioxide] | 7.22 | 3.67 | 9.08 | – |
| CC1(C)C(N)=N[C@](C)(c2cc(Nc3ncc(C#C[Si](C)(C)C)c4cc(Cl)cnc34)ccc2F)CS1(=O)=O [Example 189, (R)-5-amino-3-(5-((3-chloro-5-((trimethylsilyl)ethynyl)-1,7-naphthyridin-8-yl)amino)-2-fluorophenyl)-3,6,6-trimethyl-3,6-dihydro-2H-1,4-thiazine 1,1-dioxide] | 6.64 | < 5.31 | 8.17 | – |
| C#Cc1cnc(Nc2ccc(F)c([C@]3(C)CS(=O)(=O)C(C)(C)C(N)=N3)c2)c2ncc(Cl)cc12 [Example 190, (R)-5-amino-3-(5-((3-chloro-5-ethynyl-1,7-naphthyridin-8-yl)amino)-2-fluorophenyl)-3,6,6-trimethyl-3,6-dihydro-2H-1,4-thiazine 1,1-dioxide] | 7.35 | 4.19 | 8.89 | – |

The remaining molecules from weak to strong by pIC50 ([2]; read-out: CatD IC50), led by results:

| pIC50 ([1]; average IC50, cell assay) | pIC50 ([2]; read-out: CatD IC50) | pIC50 [3, 4] | Structure (SMILES) | further results |
| --- | --- | --- | --- | --- |
| 6.92 | 4.00 | 9.48 | C[C@]1(F)C(N)=N[C@](C)(c2cc(Nc3nccc4cc(Cl)cnc34)ccc2F)CS1(=O)=O [Example 174, (3R,6R)-5-Amino-3-(5-((3-chloro-1,7-naphthyridin-8-yl)amino)-2-fluorophenyl)-6-fluoro-3,6-dimethyl-3,6-dihydro-2H-1,4-thiazine 1,1-dioxide] | – |
| 6.99 | 4.12 | 8.41 | C[C@]1(F)C(N)=N[C@](C)(c2cc(Nc3ncnc4cc(Cl)cnc34)ccc2F)CS1(=O)=O [Example 175, (3R,6R)-5-Amino-3-((5-(7-chloropyrido[3,2-d]pyrimidin-4-yl)amino)-2-fluorophenyl)-6-fluoro-3,6-dimethyl-3,6-dihydro-2H-1,4-thiazine 1,1-dioxide] | – |
| 5.63 | 4.13 | 5.49 | CC1(C)C(N)=N[C@](C)(c2cc(Sc3ccccn3)ccc2F)CS1(=O)=O [Example 163, (R)-5-amino-3-(2-fluoro-5-(pyridin-2-ylthio)phenyl)-3,6,6-trimethyl-3,6-dihydro-2H-1,4-thiazine 1,1-dioxide] | – |
| 7.78 | 4.18 | 9.04 | CC1(C)C(N)=N[C@](C)(c2cc(Nc3nccc4cc(Cl)cnc34)ccc2F)[C@@H](F)S1(=O)=O [Example 168, (2S,3R)-5-amino-3-(5-((3-chloro-1,7-naphthyridin-8-yl)amino)-2-fluorophenyl)-2-fluoro-3,6,6-trimethyl-3,6-dihydro-2H-1,4-thiazine 1,1-dioxide] | – |
| – | 4.18 | – | Cc1cc(Cl)cnc1C(=O)Nc1cnc(F)c([C@]2(C)CS(=O)(=O)C3(CC3)C(N)=N2)c1 [Example 186, (R)—N-(5-(8-amino-6-methyl-4,4-dioxido-4-thia-7-azaspiro[2.5]oct-7-en-6-yl)-6-fluoropyridin-3-yl)-5-chloro-3-methylpicolinamide] | pIC50 ([1]; average IC50, HEK cells): 8.37; pIC50 [3, 5]: 8.62 |
| 7.05 | 4.18 | 8.96 | C[C@]1(F)C(N)=N[C@](C)(c2cc(Nc3ncnc4cc(C#N)cnc34)ccc2F)CS1(=O)=O [Example 180, 4-((3-((3R,6R)-5-Amino-6-fluoro-3,6-dimethyl-1,1-dioxido-3,6-dihydro-2H-1,4-thiazin-3-yl)-4-fluorophenyl)amino)pyrido[3,2-d]pyrimidine-7-carbonitrile] | – |
| – | 4.49 | – | C[C@]1(F)C(N)=N[C@](C)(c2cc(Nc3ncc(F)c4cc(Cl)cnc34)ccc2F)CS1(=O)=O [Example 178, (3R,6R)-5-Amino-3-(5-((3-chloro-5-fluoro-1,7-naphthyridin-8-yl)amino)-2-fluorophenyl)-6-fluoro-3,6-dimethyl-3,6-dihydro-2H-1,4-thiazine 1,1-dioxide] | pIC50 ([1]; average IC50, HEK cells): 6.42; pIC50 [3, 5]: 9.42 |
| – | 4.93 | – | CC1(C)C(N)=N[C@](C)(c2cc(Nc3c(Cl)sc4cc(C#N)cnc34)ccc2F)CS1(=O)=O [Example 167, (R)-3-((3-(5-amino-3,6,6-trimethyl-1,1-dioxido-3,6-dihydro-2H-1,4-thiazin-3-yl)-4-fluorophenyl)-amino)-2-chlorothieno[3,2-b]pyridine-6-carbonitrile] | pIC50 [1]: 5.84; pIC50 ([3]; read-out: BACE1 FRET assay IC50): 7.86 |
